Patent publication US11242337B2, “Compounds useful for treating gastrointestinal tract disorders” (Ardelyx, Inc., priority 2017, dated 2022)
Structures can show the parent of a compound that is named as a salt.

Experiments:
[1] = target: T1, NHE3 (Homo sapiens, UniProt P48764); assay: Cell-based assay of NHE-3 activity (pre-incubation inhibition), human; conditions: human Preincubation; for pIC50: 0-30 μM test compound
T1 construct: expressed in transfected cells
T1 sequence (P48764 26-834): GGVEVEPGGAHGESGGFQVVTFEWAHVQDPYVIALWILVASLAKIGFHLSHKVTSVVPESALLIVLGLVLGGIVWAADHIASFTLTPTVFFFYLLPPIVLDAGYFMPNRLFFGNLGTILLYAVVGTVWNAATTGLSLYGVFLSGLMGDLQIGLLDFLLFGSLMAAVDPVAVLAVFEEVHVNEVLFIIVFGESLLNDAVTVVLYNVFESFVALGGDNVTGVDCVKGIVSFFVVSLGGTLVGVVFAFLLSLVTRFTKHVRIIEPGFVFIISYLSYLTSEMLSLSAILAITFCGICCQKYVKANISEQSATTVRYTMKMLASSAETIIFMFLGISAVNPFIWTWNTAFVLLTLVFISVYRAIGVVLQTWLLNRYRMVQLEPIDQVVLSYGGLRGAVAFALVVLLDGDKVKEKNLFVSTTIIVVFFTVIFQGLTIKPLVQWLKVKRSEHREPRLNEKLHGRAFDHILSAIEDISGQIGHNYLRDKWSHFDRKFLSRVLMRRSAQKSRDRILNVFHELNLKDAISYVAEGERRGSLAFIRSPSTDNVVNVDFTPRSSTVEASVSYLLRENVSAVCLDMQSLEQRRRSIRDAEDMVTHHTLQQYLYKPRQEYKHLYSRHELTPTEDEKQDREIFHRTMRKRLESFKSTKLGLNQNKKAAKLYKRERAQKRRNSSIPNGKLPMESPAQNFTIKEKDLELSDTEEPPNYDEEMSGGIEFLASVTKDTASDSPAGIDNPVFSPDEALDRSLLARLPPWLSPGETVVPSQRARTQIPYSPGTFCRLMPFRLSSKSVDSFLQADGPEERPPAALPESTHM
T1 sequence (Q99653 2-195 partner limits assumed): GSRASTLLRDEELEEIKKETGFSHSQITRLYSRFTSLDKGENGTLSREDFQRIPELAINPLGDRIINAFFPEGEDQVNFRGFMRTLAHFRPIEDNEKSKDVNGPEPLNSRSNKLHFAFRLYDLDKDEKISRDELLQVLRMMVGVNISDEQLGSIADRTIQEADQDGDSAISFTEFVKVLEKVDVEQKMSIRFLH
Summary of the method: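 Activity read as initial rate of BCECF fluorescence ratio change per minute (ex 439/505, em 538 nm) following NH4Cl prepulse acid loading. Compound (0–30 μM) present during 10 min Na+-free acidification at room temperature; cells were PS120 fibroblasts stably co-expressing human NHE3 and NHERF2.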

[2] = target: T1, NHE3; assay: Cell-based assay of NHE-3 activity (persistent inhibition), human; conditions: human Persistence, 60 min incubation then washout
Summary of the method: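 Persistent inhibition: compound (0-30 μM, 60 min, RT, NaCl-HEPES pH 7.4) removed before assay. Human NHE3/NHERF2 PS120 cells were then BCECF-loaded during NH4Cl pulse (30 min, 37 °C), acidified in Na+-free buffer, and Na+ added 10 min after washout; antiport measured as initial fluorescence-ratio change per minute.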

Cc1cc(S(=O)(=O)NCCOCCOCCNC(=O)NCCCCNC(=O)NCCOCCOCCNS(=O)(=O)c2cc(C)c(O[C@H]3c4cc(Cl)cc(Cl)c4C[C@@H]3N3CCC[C@@H](N)C3)c(C)c2)cc(C)c1O[C@H]1c2cc(Cl)cc(Cl)c2C[C@@H]1N1CCC[C@@H](N)C1 [Example 79, 3-[2-(2-[2-[(4-[[(1S,2S)-2-[(3R)-3-Aminopiperidin-1-yl]-4,6-dichloro-2,3-dihydro-1H-inden-1-yl]oxy]-3,5-dimethylbenzene)sulfonamido]ethoxy]ethoxy)ethyl]-1-[4-([[2-(2-[2-[(4-[[(1S,2S)-2-[(3R)-3-aminopiperidin-1-yl]-4,6-dichloro-2,3-dihydro-1H-inden-1-yl]oxy]3,5-dimethylbenzene)sulfonamido]ethoxy]ethoxy)ethyl]carbamoyl]amino)butyl]urea; hydrochloride]
% inhibition [1]: C (>70%)
% inhibition [2]: C (>70%)
IC50 [2]: 100 to 1000 nM

Cc1cc(S(=O)(=O)NCCOCCOCCNC(=O)NCCCCNC(=O)NCCOCCOCCNS(=O)(=O)c2ccc(O[C@H]3c4cc(Cl)cc(F)c4C[C@@H]3N3CCC[C@@H](N)C3)c(C)c2)ccc1O[C@H]1c2cc(Cl)cc(F)c2C[C@@H]1N1CCC[C@@H](N)C1 [Example 6]
% inhibition [1]: A (NHE3 < 40%)
pIC50 [1]: A (NHE3 pIC50 < 6)
% inhibition [2]: A (NHE3 < 40%)
pIC50 [2]: A (NHE3 pIC50 < 6)

Cc1cc(S(=O)(=O)NCCOCCOCCNC(=O)NCCCCNC(=O)NCCOCCOCCNS(=O)(=O)c2ccc(O[C@H]3c4cc(Cl)cc(C)c4C[C@@H]3N3CCC[C@@H](N)C3)c(C)c2)ccc1O[C@H]1c2cc(Cl)cc(C)c2C[C@@H]1N1CCC[C@@H](N)C1 [Example 7, 3-[2-(2-[2-[(4-[[(1S,2S)-2-[(3R)-3-Aminopiperidin-1-yl]-6-chloro-4-methyl-2,3-dihydro-1H-inden-1-yl]oxy]-3-methylbenzene)sulfonamido]ethoxy]ethoxy)ethyl]-1-[4-([[2-(2-[2-[(4-[[(1S,2S)-2-[(3R)-3-aminopiperidin-1-yl]-6-chloro-4-methyl-2,3-dihydro-1H-inden-1-yl]oxy]-3-methylbenzene)sulfonamido]ethoxy]ethoxy)ethyl]carbamoyl]amino)butyl]urea]
% inhibition [1]: C (>70%)
% inhibition [2]: C (>70%)

COc1cc(Cl)cc2c1C[C@H](N1CCC[C@@H](N)C1)[C@H]2Oc1ccc(S(=O)(=O)NCCOCCOCCNC(=O)NCCCCNC(=O)NCCOCCOCCNS(=O)(=O)c2ccc(O[C@H]3c4cc(Cl)cc(OC)c4C[C@@H]3N3CCC[C@@H](N)C3)c(C)c2)cc1C [Example 9, 3-[2-(2-[2-[(4-[[(1S,2S)-2-[(3R)-3-Aminopiperidin-1-yl]-6-chloro-4-methoxy-2,3-dihydro-1H-inden-1-yl]oxy]-3-methylbenzene)sulfonamido]ethoxy]ethoxy)ethyl]-1-[4-([[2-(2-[2-[(4-[[(1S,2S)-2-[(3R)-3-aminopiperidin-1-yl]-6-chloro-4-methoxy-2,3-dihydro-1H-inden-1-yl]oxy]-3-methylbenzene)sulfonamido]ethoxy]ethoxy)ethyl]carbamoyl]amino)butyl]urea bis(trifluoroacetic acid)]
% inhibition [1]: A (NHE3 < 40%)
pIC50 [1]: C (NHE3 pIC50 > 7)
% inhibition [2]: B (40-70%)
IC50 [2]: 100 to 1000 nM
